We go through one molecule from US10519145B2, “Pyrazole-oxazolidinone compound for anti-hepatitis B virus” (Shanghai Zhimeng Biopharma Co., Ltd., priority 2016, dated 2019).

Data set [1] concerns HBV (HepG2.2.15 cells). Description: Anti-HBV activity experiment in vitro (HepG2.2.15, HBV DNA in supernatant, qPCR). In kind it is cell-based. The note with it: Hepatitis B virus, HBV DNA in supernatant by qPCR, eighth day. The procedure:
Compound Dilution: initial concentrations of all compounds used in the anti-HBV activity experiments in vitro were 1 μM, 3-fold diluted into 8 concentrations; initial concentrations of all compounds used in the cytotoxicity assay were 100 μM, 3-fold diluted into 8 concentrations; and the mother liquor of the compound was diluted with DMSO.
(§1) Anti-HBV Activity Experiment In Vitro: HepG2.2.15 cells (4×10^4 cells/well) were seeded in 96-well plates and cultured overnight at 37° C. in 5% CO2. The next day, fresh cultures containing compounds in different concentrations were added into the culture wells. On the fifth day, the old culture medium in the culture wells was aspirated and removed. Fresh medium containing compounds in different concentrations was added. On the eighth day, supernatants in the culture wells were collected and used to extract HBV DNA in the supernatant. qPCR assay was used to detect HBV DNA content in the HepG2.2.15 supernatant.
The data analysis and the percentage of inhibition calculation: the percentage of inhibition was calculated by using the following formula: Inhibition %=[(HBV amount in DMSO control−HBV amount in sample)/HBV amount in DMSO control]×100%.
(In qPCR the cycle at which signal appears reflects the starting amount.)

The test system of data set [2] is HBV strain U95551 (WT). Description: In vitro anti-nucleoside drug-resistant HBV strain activity experiment, transient transfection. In kind it is cell-based. Particulars: Hepatitis B virus, transfected HepG2 cells. The procedure: as §1, with “Compounds were tested for in vitro activity against nucleoside drug-resistant HBV strains using a transient transfection cell model. HepG2 cells” for “Anti-HBV Activity Experiment In Vitro: HepG2.2.15 cells”, “cells/well) that had been transfected with nucleoside drug-resistant HBV strains” for “cells/well)”, “seeded into” for “seeded in”, “removed. The fresh” for “removed. Fresh”, “the HepG2” for “the HepG2.2.15”

Data set [3] has as its system nucleoside drug-resistant HBV strain M204I. The description is as above. In kind it is cell-based. The note with it: Hepatitis B virus, HepG2. As to the method: as §1, with “Compounds were tested for in vitro activity against nucleoside drug-resistant HBV strains using a transient transfection cell model. HepG2 cells” for “Anti-HBV Activity Experiment In Vitro: HepG2.2.15 cells”, “cells/well) that had been transfected with nucleoside drug-resistant HBV strains” for “cells/well)”, “seeded into” for “seeded in”, “removed. The fresh” for “removed. Fresh”, “the HepG2” for “the HepG2.2.15”

For data set [4], the system named is nucleoside drug-resistant HBV strain M204I + S202G + M250V. The description is as above. It is filed as cell-based. Particulars: Hepatitis B virus, HepG2, 192 h. As to the method:
as §1, with “Compounds were tested for in vitro activity against nucleoside drug-resistant HBV strains using a transient transfection cell model. HepG2 cells” for “Anti-HBV Activity Experiment In Vitro: HepG2.2.15 cells”, “cells/well) that had been transfected with nucleoside drug-resistant HBV strains” for “cells/well)”, “seeded into” for “seeded in”, “removed. The fresh” for “removed. Fresh”, “the HepG2” for “the HepG2.2.15”

Data set [5] concerns nucleoside drug-resistant HBV strain M204I + V173L. The data set is described as above. It is filed as cell-based. The note with it: Hepatitis B virus, HepG2, 192 h. The procedure: as §1, with “Compounds were tested for in vitro activity against nucleoside drug-resistant HBV strains using a transient transfection cell model. HepG2 cells” for “Anti-HBV Activity Experiment In Vitro: HepG2.2.15 cells”, “cells/well) that had been transfected with nucleoside drug-resistant HBV strains” for “cells/well)”, “seeded into” for “seeded in”, “removed. The fresh” for “removed. Fresh”, “the HepG2” for “the HepG2.2.15”

Data set [6] concerns nucleoside drug-resistant HBV strain M204I + S202G. The description is as above. In kind it is cell-based. The note with it: Hepatitis B virus, HepG2, 192 h. As to the method:
as §1, with “Compounds were tested for in vitro activity against nucleoside drug-resistant HBV strains using a transient transfection cell model. HepG2 cells” for “Anti-HBV Activity Experiment In Vitro: HepG2.2.15 cells”, “cells/well) that had been transfected with nucleoside drug-resistant HBV strains” for “cells/well)”, “seeded into” for “seeded in”, “removed. The fresh” for “removed. Fresh”, “the HepG2” for “the HepG2.2.15”

In data set [7] the test system is nucleoside drug-resistant HBV strain L180M + M204V. Described as above. It is filed as cell-based. Particulars: Hepatitis B virus, HepG2, 192 h. The procedure:
as §1, with “Compounds were tested for in vitro activity against nucleoside drug-resistant HBV strains using a transient transfection cell model. HepG2 cells” for “Anti-HBV Activity Experiment In Vitro: HepG2.2.15 cells”, “cells/well) that had been transfected with nucleoside drug-resistant HBV strains” for “cells/well)”, “seeded into” for “seeded in”, “removed. The fresh” for “removed. Fresh”, “the HepG2” for “the HepG2.2.15”

Data set [8] can be described thus: Pharmacokinetic determination in mice (subcutaneous). It is filed as in vivo. Particulars: sc, female BALB/c mouse, single administration, plasma. As to the method:
In addition, the pharmacokinetics of the compound of Example 3 (R isomer) in the present application was determined in mice.
Test compounds were subcutaneously administered to female BALB/c mouse once and blood samples were taken at different time points. LC/MS/MS was used to determine the concentration of the test compounds in the […] plasma after administration of the test compounds and calculate relevant parameters.
Animal blood collection time points were: before administration, 5 min, […], 30 min, 1 h, 2 h, 4 h, 8 h and 24 h after administration.
Mass Spectrometer: Triple Quad 5500. Mass Spectrometry Conditions: SRM Detection
Liquid phase conditions: Column: XSELECT CSHTM XP C18 (2.1×50 mm, 2.5 μm); chromatographic mobile phase: mobile phase A: 0.025% FA & 1 mM NH4OAc in water/CAN solution (v:v, 95: 5), mobile phase B: 0.025% FA & 1 mM NH4OAc in ACN/water solution (v:v, 95: 5) (A:B =65%: 35%-10%: 90%); flow rate: 0.6 mL/min; column temperature: 50° C.
According to the drug blood concentration data, the pharmacokinetic parameters of the test compound were calculated using the pharmacokinetic calculation software WinNonlin 5.2 non-compartmental model.

Data set [9] has as its system HBV genotype AP007263 (A). Description: Anti-different genotypic HBV strain activity assay in vitro, transient transfection. Particulars: Hepatitis B virus, HepG2. It is filed as cell-based. The procedure:
as §1, with “Compounds were tested for in vitro activity against different genotypic HBV strains using a transient transfection cell model. HepG2 cells” for “Anti-HBV Activity Experiment In Vitro: HepG2.2.15 cells”, “cells/well) that had been transfected with different HBV genotypic strains” for “cells/well)”, “seeded into” for “seeded in”, “removed. The fresh” for “removed. Fresh”, “to detected” for “to detect”, “the HepG2” for “the HepG2.2.15”

In data set [10] the test system is HBV genotype U95551 (D). The description is as above. It is filed as cell-based. Particulars: Hepatitis B virus, HepG2. As to the method:
as §1, with “Compounds were tested for in vitro activity against different genotypic HBV strains using a transient transfection cell model. HepG2 cells” for “Anti-HBV Activity Experiment In Vitro: HepG2.2.15 cells”, “cells/well) that had been transfected with different HBV genotypic strains” for “cells/well)”, “seeded into” for “seeded in”, “removed. The fresh” for “removed. Fresh”, “to detected” for “to detect”, “the HepG2” for “the HepG2.2.15”

The test system of data set [11] is HBV genotype JN406371 (B). The data set is described as above. It is filed as cell-based. Particulars: Hepatitis B virus, HepG2. As to the method:
as §1, with “Compounds were tested for in vitro activity against different genotypic HBV strains using a transient transfection cell model. HepG2 cells” for “Anti-HBV Activity Experiment In Vitro: HepG2.2.15 cells”, “cells/well) that had been transfected with different HBV genotypic strains” for “cells/well)”, “seeded into” for “seeded in”, “removed. The fresh” for “removed. Fresh”, “to detected” for “to detect”, “the HepG2” for “the HepG2.2.15”

Data set [12] concerns HBV genotype AB246345 (C). Described as above. In kind it is cell-based. The note with it: Hepatitis B virus, HepG2. As to the method: as §1, with “Compounds were tested for in vitro activity against different genotypic HBV strains using a transient transfection cell model. HepG2 cells” for “Anti-HBV Activity Experiment In Vitro: HepG2.2.15 cells”, “cells/well) that had been transfected with different HBV genotypic strains” for “cells/well)”, “seeded into” for “seeded in”, “removed. The fresh” for “removed. Fresh”, “to detected” for “to detect”, “the HepG2” for “the HepG2.2.15”

In data set [13] the test system is HBV genotype AB246346 (C). The data set is described as above. It is filed as cell-based. Particulars: Hepatitis B virus, HepG2. The procedure:
as §1, with “Compounds were tested for in vitro activity against different genotypic HBV strains using a transient transfection cell model. HepG2 cells” for “Anti-HBV Activity Experiment In Vitro: HepG2.2.15 cells”, “cells/well) that had been transfected with different HBV genotypic strains” for “cells/well)”, “seeded into” for “seeded in”, “removed. The fresh” for “removed. Fresh”, “to detected” for “to detect”, “the HepG2” for “the HepG2.2.15”

Data set [14] concerns HBV genotype HE974371 (A2). Described as above. In kind it is cell-based. The note with it: Hepatitis B virus, HepG2. As to the method:
as §1, with “Compounds were tested for in vitro activity against different genotypic HBV strains using a transient transfection cell model. HepG2 cells” for “Anti-HBV Activity Experiment In Vitro: HepG2.2.15 cells”, “cells/well) that had been transfected with different HBV genotypic strains” for “cells/well)”, “seeded into” for “seeded in”, “removed. The fresh” for “removed. Fresh”, “to detected” for “to detect”, “the HepG2” for “the HepG2.2.15”

Data set [15] has as its system HBV genotype AB033554 (B). The data set is described as above. The note with it: Hepatitis B virus, HepG2. It is filed as cell-based. As to the method:
as §1, with “Compounds were tested for in vitro activity against different genotypic HBV strains using a transient transfection cell model. HepG2 cells” for “Anti-HBV Activity Experiment In Vitro: HepG2.2.15 cells”, “cells/well) that had been transfected with different HBV genotypic strains” for “cells/well)”, “seeded into” for “seeded in”, “removed. The fresh” for “removed. Fresh”, “to detected” for “to detect”, “the HepG2” for “the HepG2.2.15”

Data set [16] relates to HBV DNA in mouse plasma. Description: Determination of pharmacodynamics in vivo (high pressure tail vein injection of HBV DNA). The note with it: 25 mpk, intraperitoneal daily. As to the method: High pressure injection of HBV DNA in tail vein and administration methods:
HBV plasmid DNA solution was high-pressure injected via the tail veins of the mouse: the plasmid DNA was pre-dissolved in physiological saline (10 μg/1.4 ml, 10 μg/1.5 ml) before injection and stored at 4 until its use. The mice were injected with a plasmid DNA solution at a dosage of 8% of the body weight from the tail vein in 5 seconds. If the injection volume is less than or equal to 1.4 ml, 10 μg/1.4 ml of plasmid solution was used; if the injection volume is greater than or equal to 1.5 ml, 10 μg/1.5 ml of plasmid solution was used.
On 1st-7th day, the mice were continuously injected intraperitoneally with the test compound or solvent for 7 days. […] The plasma was divided into two and one was sent to anti-infective groups in the Department of Biology for HBV DNA detection, and the other was ready for use. […]
Quantitative PCR was used to detect the content of HBV DNA in mouse plasma. […]
Quantitative PCR detection of HBV DNA content: In order to rule out possible interference with injected HBV plasmid DNA, two sets of primers and probes were used simultaneously for the assay. […]
HBV DNA content =DNA content detected by HBV primers - DNA content detected by pAAV2 primers

As to `O=C1CO[C@H](c2cn(-c3ccc(Br)cc3)nc2-c2ccc(F)cc2)N1CCc1ccc2[nH]c(=O)[nH]c2c1` [example 3 R isomer, (R)-3-(2-(2-oxo-2,3-dihydro-1H-benzo[d]imidazol-5-yl)ethyl)-2-(1-(4-bromophenyl)-3-(4-fluorophenyl)-1H-pyrazol-4-yl)-oxazolidin-4-one], the EC50 (as a rule, the midpoint of the concentration-response curve) was determined as 0.00768 µM in data set [1]; 0.0191 µM in [2]; 0.0212 µM in data set [3]; 0.0136 µM in data set [4]; 0.014 µM in [5]; 0.0116 µM in data set [6]. The EC50 was 0.0189 µM in data set [7]; 0.0339 µM in [9]; 0.0144 µM in data set [10]; 0.00869 µM in data set [11]; 0.00626 µM in [12]; 0.0146 µM in data set [13]. Also, the EC50 turned out to be 0.00467 µM in data set [14] and 0.0136 µM in data set [15]. Further, the AUC(0-inf) (in general, the area under the concentration-time curve extrapolated to infinity) in data set [8] turned out to be 2080 ng·h/mL. Also, in data set [8], the Cmax (as a rule, the peak of the concentration-time curve) stood at 643 ng/mL. Also, in [8], the Tmax (in general, the time from dosing to the highest level) came to 1.33 h. Further, in data set [8], the half-life (in general, the time in which the quantity being followed falls by half) was 1.19 h. The MRT inf in data set [8] (read-out: MRT0-inf) was found to be 2.4 h. Also, the “decrease of HBV DNA content in mouse plasma” value in [16] (1st day) is on record as 0.55 log; in [16] (3rd day), 1.84 log.
